Measured values published in patent US8278301B2, “2-alkylbenzoxazole carboxamides as 5HT3 modulators” (Albany Molecular Research, Inc., priority 2006, dated 2012).
Where a name gives a salt, the structure may show the parent alone.

What follows are compounds tested against T1, mouse 5-HT3 receptor (Mus musculus, UniProt P23979) (assay: Compound affinity for the mouse 5-HT3 receptor (Assay C), [3H]-GR65630 radioligand binding, Novoscreen). Conditions: Assay C; single concentration 100 nM, in duplicate; [3H]-GR65630; read-out: Mouse % Inhibition @ 100 nM.
T1 construct: host or cells: mouse neuroblastoma cells (N1E-155 as printed)
T1 sequence (P23979 24-489): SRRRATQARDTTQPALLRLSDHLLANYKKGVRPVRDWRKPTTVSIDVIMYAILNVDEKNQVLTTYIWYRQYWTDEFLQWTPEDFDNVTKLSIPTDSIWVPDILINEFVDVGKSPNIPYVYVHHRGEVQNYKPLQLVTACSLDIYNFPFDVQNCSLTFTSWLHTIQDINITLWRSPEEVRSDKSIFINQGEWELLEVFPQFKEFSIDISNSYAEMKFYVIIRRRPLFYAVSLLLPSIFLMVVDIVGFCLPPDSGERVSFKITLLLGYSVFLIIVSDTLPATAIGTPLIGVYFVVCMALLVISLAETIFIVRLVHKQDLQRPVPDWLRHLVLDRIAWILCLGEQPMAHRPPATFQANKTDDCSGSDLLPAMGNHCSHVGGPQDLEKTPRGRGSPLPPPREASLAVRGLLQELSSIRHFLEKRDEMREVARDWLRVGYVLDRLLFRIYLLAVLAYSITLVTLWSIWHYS
Protocol: Compound Affinity for the Mouse 5-HT3Receptor (Assay C)
Compounds were tested by Novoscreen Biosciences Corporation, 7170 Standard Drive, Hanover, Md. in a radioligand binding assay using the mouse 5-HT3 receptor derived from mouse neuroblastoma cells and [^3H]-GR65630 (ligand). The non-specific binding determinant was MDL 72222. Compounds were tested at a single concentration of 100 nM in duplicate. Percent inhibition is reported. In order to evaluate the relative affinity of the various compounds for the 5-HT3 receptor, N1E-155 cell lines were developed to express the target protein. For binding, these cells were homogenized, centrifuged and washed with buffer (20 mM HEPES, 150 mM NaCl, pH 7.4) then suspended in 0.5 mL of buffer and [^3H]-GR65630 added at a concentration of 3.5×10^−10 M. An initial single concentration of 10^−7 M of the test compound was then added. Incubation was carried out at room temperature for 60 minutes at 25° C. then was terminated by rapid removal of the incubation medium. Radioactivity was assessed using liquid scintillation spectrophotometry after exposure to scintillation cocktail for at least three hours. […] Ki values were then calculated from the Cheng-Prusoff equation. In all of the above binding studies the non-specific determinant was MDL-72222 (1.0 μM).
(§1) In the table below, the assay in which the data were obtained is shown (as A, B. C, or D) along with the data.
For `O=C(N[C@@H]1CN2CCC1CC2)c1cccc2oc(C3CCCC3)nc12` [Example 6, (S)—N-(1-Azabicyclo[2.2.2]oct-3-yl)-2-cyclopentylbenzoxazole-4-carboxamide Hydrochloride], the inhibition at 0.1 µM was 90.2%.
`CN1C2CCCC1CC(NC(=O)c1cccc3oc(C4CCCCC4)nc13)C2` (stereo not drawn) [Example 15, Endo-N-(9-Methyl-9-azabicyclo[3.3.1]non-3-yl)-2-cyclohexylbenzoxazole-4-carboxamide Hydrochloride] gave an inhibition at 0.1 µM of 105%.
For `O=C(N[C@@H]1CN2CCC1CC2)c1cccc2oc(C3CCCCC3)nc12` [Example 16, (S)—N-(1-Azabicyclo[2.2.2]oct-3-yl)-2-cyclohexylbenzoxazole-4-carboxamide Hydrochloride], the inhibition at 0.1 µM was 94.1%.
For `CCN1C2CCCC1CC(NC(=O)c1cccc3oc(C4CC4)nc13)C2` (stereo not drawn) [Example 21, N-(9-Ethyl-9-azabicyclo[3.3.1]non-3-yl)-2-cyclopropylbenzoxazole-4-carboxamide Hydrochloride], the inhibition at 0.1 µM was 34.9%.

Same assay, conditions: read-out: Mouse % Inhibition @ 100 nM
For `CC1CC1c1nc2c(C(=O)NC3CN4CCC3CC4)cccc2o1` (racemic) [Example 14, (S)—N-(1-Azabicyclo[2.2.2]oct-3-yl)-2-(2-methylcyclopropyl)benzoxazole-4-carboxamide Hydrochloride], the inhibition at 0.1 µM was 93.6%.

What follows are compounds tested against T2, human 5-HT3 receptor (Homo sapiens, UniProt P46098) (assay: Compound affinity for the human 5-HT3 receptor (Assay B), SPA radioligand binding with [9-methyl-3H]BRL-43694). Conditions: not given.
T2 sequence (P46098 24-478): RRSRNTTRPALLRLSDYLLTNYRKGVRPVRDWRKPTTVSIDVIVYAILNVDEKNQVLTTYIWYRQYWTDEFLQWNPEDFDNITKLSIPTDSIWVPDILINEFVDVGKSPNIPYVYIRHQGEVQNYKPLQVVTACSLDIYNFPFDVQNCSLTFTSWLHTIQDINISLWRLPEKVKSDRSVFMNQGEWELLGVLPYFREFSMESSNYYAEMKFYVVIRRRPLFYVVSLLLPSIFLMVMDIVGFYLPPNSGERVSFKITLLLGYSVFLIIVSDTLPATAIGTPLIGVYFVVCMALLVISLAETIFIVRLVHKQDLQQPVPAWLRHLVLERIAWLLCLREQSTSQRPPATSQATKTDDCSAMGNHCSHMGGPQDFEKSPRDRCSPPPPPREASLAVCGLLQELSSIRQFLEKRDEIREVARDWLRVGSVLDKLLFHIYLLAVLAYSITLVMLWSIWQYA
Parameters: purchased Perkin Elmer
Protocol: Compound Affinity for the Human 5-HT3 Receptor (Assay B)
The relative affinity of the various compounds for the human 5-HT3 receptor was measured in a radioligand binding assay, using a scintillation proximity assay (SPA) format. Test compounds were dissolved to 10 mM in 100% DMSO, then serially diluted at 10× assay concentrations in 100% DMSO in 96-well polypropylene plates and further diluted to 4× assay concentrations with the assay buffer. Samples were incubated in 50 mM Tris-HCl, pH 7.5, 3 mM MgCl2, 1 mM EDTA and 10% DMSO with 10 nM [9-methyl-3H]BRL-43694 (Perkin Elmer), 3 μg of human 5-HT3 receptor membranes (Perkin Elmer) and 0.5 mg/mL SPA beads (WGA PVT, Amersham Biosciences) in a final volume of 0.2 mL. Binding reactions were set up in wells of PicoPlates-96 (Perkin Elmer) by adding consecutively 50 μL of each competing compound or buffer, SPA beads, the radioligand and 5-HT3 receptor membranes. After 60-min incubation at room temperature on a Nutator mixer, plates were centrifuged for 15 min at 1,500 rpm, followed by incubation in the dark for 30 min. Radioactivity was counted in the TopCount microplate counter (Perkin Elmer) for 5 min. Total binding control contained buffer only; nonspecific binding was determined in the presence of 30 μM MDL-72222. Specific binding was determined by subtracting nonspecific binding from total binding. All experiments were performed in duplicate using ten concentrations of a competing ligand, with ondansetron included as a control in every run. IC50 values were determined from specific binding data using XLfit4.1 curve fitting software from IDBS Ltd. Ki values were then calculated from the Cheng-Prusoff equation.
as §1
`CN1CCCCC1c1nc2c(C(=O)N[C@H]3C[C@H]4CCC[C@@H](C3)N4C)cccc2o1` (mixture of isomers) [Example 33, Endo-N-(9-Methyl-9-azabicyclo[3.3.1]nonan-3-yl)-2-(1-methylpiperidin-2-yl)benzoxazole-4-carboxamide Hydrochloride] was tested, and the Ki was 21.6 nM.
Work on `CN1[C@@H]2CCC[C@H]1C[C@@H](NC(=O)c1cccc3oc(C4CCNCC4)nc13)C2` [Example 27, Endo-N-(9-methyl-9-azabicyclo[3.3.1]non-3-yl)-2-(piperidin-4-yl)benzoxazole-4-carboxamide Dihydrochloride] yielded a Ki of 41 nM.
Work on `CN1CCC(c2nc3c(C(=O)N[C@H]4C[C@H]5CCC[C@@H](C4)N5C)cccc3o2)CC1` [Example 29, Endo-N-(9-methyl-9-azabicyclo[3.3.1]non-3-yl)-2-(1-methylpiperidin-4-yl)benzoxazole-4-carboxamide Dihydrochloride] yielded a Ki of 28 nM.
`CN1CCC(c2nc3c(C(=O)N[C@@H]4CN5CCC4CC5)cccc3o2)CC1` [Example 30, (S)—N-(1-Azabicyclo[2.2.2]oct-3-yl)-2-(1-methylpiperidin-4-yl)benzoxazole-4-carboxamide Dihydrochloride Dihydrochloride] was tested, and the Ki was 83 nM.
With `CN1C2COCC1CC(NC(=O)c1cccc3oc(C4CCCC4)nc13)C2` (stereo not drawn) [Example 32, N-(9-methyl-3-oxa-9-azabicyclo[3.3.1]non-7-yl)-2-(cyclopentyl-4-yl)benzoxazole-4-carboxamide Hydrochloride] the Ki was 81.9 nM.
Compound `O=C(NC1CC2CCCC(C1)N2)c1cccc2oc(C3CC3)nc12` (stereo not drawn) [Example 36, N-(9-Azabicyclo[3.3.1]non-3-yl)-2-cyclopropylbenzoxazole-4-carboxamide Hydrochloride] has a Ki of 6.3 nM.
In the case of `CN1[C@@H]2CCC[C@H]1C[C@@H](NC(=O)c1cccc3oc(CN4CCOCC4)nc13)C2` [Example 39, Endo-N-(9-Methyl-9-azabicyclo[3.3.1]nonan-3-yl)-2-(morpholinomethyl)benzoxazole-4-carboxamide Hydrochloride], the Ki is reported as 77.1 nM.
For `CCN(CC)Cc1nc2c(C(=O)N[C@H]3C[C@H]4CCC[C@@H](C3)N4C)cccc2o1` [Example 41, Endo-N-(9-Methyl-9-azabicyclo[3.3.1]nonan-3-yl)-2-(diethylaminomethyl)benzoxazole-4-carboxamide Hydrochloride], the Ki was 15.3 nM.
`C[C@H]1OC(=O)N(C)C1c1nc2c(C(=O)NC3CC4CCCC(C3)N4C)cccc2o1` (stereo partly drawn) [Example 42, Endo-N-(9-methyl-9-azabicyclo[3.3.1]nonan-3-yl)-2-((4S,5R/4R,5S)-3,5-dimethyl-2-oxo-oxazolidin-4-yl)benzoxazole-4-carboxamide] gave a Ki of 24.9 nM.

Same assay, conditions: Assay B; 10 μM
Compound `O=C(N[C@@H]1CN2CCC1CC2)c1cccc2oc(CN3CCOCC3)nc12` [Example 38, (S)—N-(Azabicyclo[2.2.2]oct-3-yl)-2-(morpholinomethyl)benzoxazole-4-carboxamide Hydrochloride] has an inhibition at 10 µM of 74%.

Same assay, conditions: Assay B; SPA, [9-methyl-3H]BRL-43694; Cheng-Prusoff; read-out: Human 5HT3 Ki
`O=C(N[C@@H]1CN2CCC1CC2)c1cccc2oc(C3CCOCC3)nc12` [Example 25, (S)—N-(1-Azabicyclo[2.2.2]oct-3-yl)-2-(tetrahydro-2H-pyran-4-yl)benzoxazole-4-carboxamide Hydrochloride] gave a Ki of 126 nM.
Work on `CN1[C@@H]2CCC[C@H]1C[C@@H](NC(=O)c1cccc3oc(C45CCN(CC4)CC5)nc13)C2` [Example 26, Endo-N-(9-Methyl-9-azabicyclo[3.3.1]nonan-3-yl)-2-(quinuclidin-4-yl)benzoxazole-4-carboxamide Dihydrochloride] yielded a Ki of 173 nM.
In the case of `O=C(N[C@@H]1CN2CCC1CC2)c1cccc2oc(C3CCNCC3)nc12` [Example 28, (S)—N-(1-Azabicyclo[2.2.2]oct-3-yl)-2-(piperidin-4-yl)benzoxazole-4-carboxamide Dihydrochloride], the Ki is reported as 111 nM.
In the case of `CC(=O)N1CCC(c2nc3c(C(=O)N[C@@H]4CN5CCC4CC5)cccc3o2)CC1` [Example 31, (S)—N-(1-Azabicyclo[2.2.2]oct-3-yl)-2-(1-acetylpiperidin-4-yl)benzoxazole-4-carboxamide Hydrochloride], the Ki is reported as 356 nM.
With `CN1[C@@H]2CCC[C@H]1C[C@@H](NC(=O)c1cccc3nc(C(C)(C)C)oc13)C2` [Example 37, Endo-N-(9-methyl-9-azabicyclo[3.3.1]non-3-yl)-2-tert-butyl benzoxazole-7-carboxamide Hydrochloride] the Ki was 166 nM.
`CCN(CC)Cc1nc2c(C(=O)NC3CN4CCC3CC4)cccc2o1` [Example 40, (S)—N-(Azabicylco[2.2.2]oct-3-yl)-2-(diethylaminomethyl)benzoxazole-4-carboxamide Hydrochloride] showed a Ki of 129 nM.
